Experimental data as given in US20020107219A1, “Adenoviral vector containing cyclooxygenase-2 promoter and uses thereof” (priority 2000, published 2002).

Assay type: in vivo, C57BL/6 mice
From the text: To investigate the toxicity induced by the HSV-tk/GCV system, each group of ten C57BL/6 mice received a tail vein injection of AdCMV TK (10^9 pfu), Adcox2LTK (10^9 pfu) or phosphate-buffered saline on day 0. […] The mice were sacrificed on day 6 and the blood samples were collected to analyze total bilirubin, alanine aminotransferase (ALT), aspartate aminotransferase (AST) an d lactate dehydrogenase (LDH) at a veterinary laboratory (ANTECH Diagnostics, Farmingdale, N.Y.). For histopathological analysis, the major organs were fixed with 10% buffered formaldehyde, paraffin-embedded and cut in to 4 μm section, followed by deparaffinization and staining with hematoxylin and eosin.

Nc1nc(O)c2ncn(COC(CO)CO)c2n1 [GCV, ganciclovir]
serum samples (total bilirubin, ALT, AST, LDH) (only GCV, without virus): did not show abnormality | liver histology (H and E) (without virus administration): appeared almost normal
